Laboratory results from the supplement of paper PMC13207355.

Tests used:
Details in all cases: exposure time: 72 h
FT3469 [1] = normal neural stem cell line; assay: phenotypic distance (Euclidean, principal components) from DMSO controls (arbitrary units); higher = stronger morphological change
E31 [2] = patient-derived glioblastoma stem cells of proneural subtype; assay: as above
E13 [3] = patient-derived glioblastoma stem cells of classical subtype; assay: as above
E34 [4] = patient-derived glioblastoma stem cells of proneural subtype; assay: as above
E21 [5] = patient-derived glioblastoma stem cells of mesenchymal subtype; assay: as above
E28 [6] = patient-derived glioblastoma stem cells of classical subtype; assay: as above
E57 [7] = patient-derived glioblastoma stem cells of mesenchymal subtype; assay: as above
FT3469 [8] = assay: surviving fraction (nuclei count normalised to DMSO); higher = more cells surviving (less toxic)
E31 [9] = assay: as above
E13 [10] = assay: as above
E34 [11] = assay: as above
E21 [12] = assay: as above
E28 [13] = assay: as above
E57 [14] = assay: as above
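Throughout, for phenotypic distance (Euclidean, principal components) from DMSO controls: cell Painting imaging in 384-well plates, CellProfiler features reduced to at least 20 principal components, Euclidean distance versus same-plate DMSO vehicle wells (0.1% v/v), median over six images per well.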
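Throughout, for surviving fraction (nuclei count normalised to DMSO): nuclei counted by high-content imaging of Hoechst-stained cells in laminin-coated 384-well plates, relative to 0.1% DMSO vehicle wells, with staurosporine as cell-death control.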

Clc1ccc(CSC(Cn2ccnc2)c2ccc(Cl)cc2Cl)cc1 (stereo not drawn) [Sulconazole nitrate]
Details	phenotypic distance	surviving fraction
E13 [3], 4.1 nM	0.507	–
E13 [3], 12.3 nM	0.659	–
E13 [3], 37 nM	0.68	–
E13 [3], 111.1 nM	0.822	–
E13 [3], 333.3 nM	1.02	–
E13 [3], 1000 nM	1.17	–
E13 [3], 3000 nM	0.957	–
E13 [10], 4.1 nM	–	0.897
E13 [10], 12.3 nM	–	0.833
E13 [10], 37 nM	–	0.964
E13 [10], 111.1 nM	–	0.887
E13 [10], 333.3 nM	–	0.841
E13 [10], 1000 nM	–	0.82
E13 [10], 3000 nM	–	0.799
E21 [5], 4.1 nM	0.971	–
E21 [5], 12.3 nM	4.31	–
E21 [5], 37 nM	0.531	–
E21 [5], 111.1 nM	0.857	–
E21 [5], 333.3 nM	1.11	–
E21 [5], 1000 nM	0.859	–
E21 [5], 3000 nM	1.68	–
E21 [12], 4.1 nM	–	0.956
E21 [12], 12.3 nM	–	1.01
E21 [12], 37 nM	–	1.03
E21 [12], 111.1 nM	–	0.956
E21 [12], 333.3 nM	–	0.962
E21 [12], 1000 nM	–	0.952
E21 [12], 3000 nM	–	0.859
E28 [6], 4.1 nM	0.745	–
E28 [6], 12.3 nM	0.557	–
E28 [6], 37 nM	0.545	–
E28 [6], 111.1 nM	0.553	–
E28 [6], 333.3 nM	0.469	–
E28 [6], 1000 nM	0.567	–
E28 [6], 3000 nM	0.697	–
E28 [13], 4.1 nM	–	0.969
E28 [13], 12.3 nM	–	0.978
E28 [13], 37 nM	–	0.902
E28 [13], 111.1 nM	–	0.886
E28 [13], 333.3 nM	–	0.956
E28 [13], 1000 nM	–	0.917
E28 [13], 3000 nM	–	0.839
E31 [2], 4.1 nM	0.532	–
E31 [2], 12.3 nM	0.425	–
E31 [2], 37 nM	0.596	–
E31 [2], 111.1 nM	0.731	–
E31 [2], 333.3 nM	1.14	–
E31 [2], 1000 nM	1.17	–
E31 [2], 3000 nM	1.4	–
E31 [9], 4.1 nM	–	0.929
E31 [9], 12.3 nM	–	0.922
E31 [9], 37 nM	–	1.01
E31 [9], 111.1 nM	–	1.02
E31 [9], 333.3 nM	–	0.984
E31 [9], 1000 nM	–	1.09
E31 [9], 3000 nM	–	1.17
E34 [4], 4.1 nM	1.17	–
E34 [4], 12.3 nM	0.4	–
E34 [4], 37 nM	0.413	–
E34 [4], 111.1 nM	0.586	–
E34 [4], 333.3 nM	0.864	–
E34 [4], 1000 nM	0.895	–
E34 [4], 3000 nM	1.02	–
E34 [11], 4.1 nM	–	0.824
E34 [11], 12.3 nM	–	1.02
E34 [11], 37 nM	–	0.954
E34 [11], 111.1 nM	–	0.957
E34 [11], 333.3 nM	–	0.909
E34 [11], 1000 nM	–	0.932
E34 [11], 3000 nM	–	0.766
E57 [7], 4.1 nM	0.709	–
E57 [7], 12.3 nM	0.952	–
E57 [7], 37 nM	0.398	–
E57 [7], 111.1 nM	0.55	–
E57 [7], 333.3 nM	0.671	–
E57 [7], 1000 nM	0.779	–
E57 [7], 3000 nM	1.99	–
E57 [14], 4.1 nM	–	0.975
E57 [14], 12.3 nM	–	0.945
E57 [14], 37 nM	–	0.995
E57 [14], 111.1 nM	–	0.972
E57 [14], 333.3 nM	–	1.07
E57 [14], 1000 nM	–	1.03
E57 [14], 3000 nM	–	0.934
FT3469 [1], 4.1 nM	0.821	–
FT3469 [1], 12.3 nM	0.617	–
FT3469 [1], 37 nM	0.893	–
FT3469 [1], 111.1 nM	0.999	–
FT3469 [1], 333.3 nM	1.06	–
FT3469 [1], 1000 nM	0.92	–
FT3469 [1], 3000 nM	1.39	–
FT3469 [8], 4.1 nM	–	0.831
FT3469 [8], 12.3 nM	–	1.03
FT3469 [8], 37 nM	–	0.945
FT3469 [8], 111.1 nM	–	0.801
FT3469 [8], 333.3 nM	–	0.934
FT3469 [8], 1000 nM	–	0.869
FT3469 [8], 3000 nM	–	0.734
